PubChem BioAssay AID2060618 (Molecular Pharmacology Branch, DTP, NCI, 2025)

System: 454973-116-R2-J3-PDC spheroids, percent test/control viability
Assay: Anticancer human tumor 454973-116-R2-J3-PDC patient-derived pancreatic carcinoma cell line growth inhibition [CLK]
Conditions: spheroids with HUVEC and MSC; for IC50: curve of first compound; for viability, T/C: stronger effect = lower value
Text: A high-throughput screen of multi-cell type tumor spheroids was designed to identify active combinations of […] and targeted small molecules. Complex spheroids include a stromal component modeled by human endothelial cells (HUVEC) and fibroblasts modeled by human mesenchymal stem cells (MSCs). The concentration ranges selected for each drug and investigational agent were based upon clinically achievable concentrations if the clinical Cmax of the agent was known.
Compounds. The drugs and investigational agents: cirtuvivint (SM08502; NSC835563), CC-671 (NSC850746), vemurafenib (NSC761431), tapotoclax (NSC804041), sotorasib (NSC818433), adagrasib (NSC831453), MRTX-1133 (NSC836407), BAY2416964 (NSC825713), copanlisib (NSC816437), inavolisib (NSC800729), abemaciclib (NSC768073), osimertinib (NSC779217), entinostat (NSC756642), eltanexor (KPT-8602, NSC794443), venetoclax (NSC766270), ceralasertib (NSC777638), bortezomib (NSC756655), olaparib (NSC753686), talazoparib (NSC767125), alisertib (NSC759677), peposertib (NSC802822), gemcitabine (NSC613327), 5-fluorouracil (NSC19893), SN-38 (NSC673596), oxaliplatin (NSC266046), paclitaxel (NSC125973), and doxorubicin (NSC123127), were obtained from the National Cancer Institute (NCI) Developmental Therapeutics Program Chemical Repository. The FDA-approved anticancer drug set is available from the Developmental Therapeutics Program at https://dtp.cancer.gov/organization/dscb/obtaining/available plates.htm. […] The stock solutions were prepared in dimethyl sulfoxide (DMSO, Sigma-Aldrich, St. Louis, MO, cat. D2650), except for the platinum complexes which were prepared in saline (Quality Biological, Gaithersburg, MD, cat. 114-055-101), at 800-fold the tested concentration and stored at -70 degrees C prior to their use. All drugs and investigational agents were tested over a range starting from a high concentration at or near the clinical Cmax and decreasing in half-log increments. If the clinical Cmax for an agent had not been determined, the highest concentration tested was 10 microM.
Cell Culture. All cells were maintained in an incubator at 37 degrees C and 5% CO2 with 95% humidity. The PDC lines were cultured according to standard operating procedures established by the NCI PDMR. Briefly, all PDCs were thawed and cultured in Matrigel-coated flasks prepared with a working solution of 1X Ham's F-12 nutrient mix, without supplementation (Invitrogen, Waltham, MA, cat. 11765054), 100 U/mL penicillin-streptomycin (Invitrogen, cat. 15140122), and 2.5% Matrigel (Corning Inc., Corning, NY, cat. 354248) for the first three passages. The 947758-054-R-J2-PDC line was cultured in 6B/Colon 1A media, which includes advanced DMEM/F-12 (Thermo Fisher Scientific, cat. 12634028), 10 mM HEPES (Thermo Fisher Scientific, cat. 15630080), 1X GlutaMAX supplement (Thermo Fisher Scientific, cat. 35050061), 0.1 mg/mL primocin (InvivoGen, cat. ant-pm-2), 10% defined fetal bovine serum, heat inactivated (HyClone Laboratories Inc., cat. SH30070.03HI), 1.25 mM N-Acetyl-L-cysteine (Sigma-Aldrich, cat. A9165), 10 mM nicotinamide (Sigma-Aldrich, cat. N0636), 1X B-27 supplement (Thermo Fisher Scientific, cat. 17504044), 1X N-2 supplement (Thermo Fisher Scientific, cat. 17502048), and 10 microM Y-27632 dihydrochloride (Tocris Bioscience, cat. 1254). The 876862-298-R-J1-PDC was cultured in 6E media, which includes all 6B/Colon 1A media components plus 50% L-WRN conditioned media (ATCC, cat. CRL-3276), 50 ng/mL recombinant human EGF recombinant protein (hEGF; Thermo Fisher Scientific, cat. PHG0311), 10 ng/mL recombinant human fibroblast growth factor 10 (hGFG-10; PeproTech, cat. 100-26), 1 ng/mL recombinant human fibroblast growth factor 2 (hFGF-2; PeproTech, cat. 100-18B), and 1 µM prostaglandin E2 (PGE2; Tocris, cat. 2296). The 227483-062-R1-J1-PDC line was cultured in Panc media, containing all 6E components except hFGF-2, with the addition of 500 nM SB-431542 (Selleckchem, cat. S1067) and 10 nM gastrin (Tocris, cat. 3006). […]

[1] = second compound 0.0316 µM, first compound 0.0316 µM
[2] = second compound 0.0316 µM, first compound 0.1 µM
[3] = second compound 0.0316 µM, first compound 0.316 µM
[4] = second compound 0.0316 µM, first compound 1 µM
[5] = second compound 0.0316 µM, first compound 3.16 µM
[6] = second compound 0.0316 µM, first compound 10 µM
[7] = second compound 0.1 µM, first compound 0.0316 µM
[8] = second compound 0.1 µM, first compound 0.1 µM
[9] = second compound 0.1 µM, first compound 0.316 µM
[10] = second compound 0.1 µM, first compound 1 µM
[11] = second compound 0.1 µM, first compound 3.16 µM
[12] = second compound 0.1 µM, first compound 10 µM
[13] = second compound 0.316 µM, first compound 0.0316 µM
[14] = second compound 0.316 µM, first compound 0.1 µM
[15] = second compound 0.316 µM, first compound 0.316 µM
[16] = second compound 0.316 µM, first compound 1 µM
[17] = second compound 0.316 µM, first compound 3.16 µM
[18] = second compound 0.316 µM, first compound 10 µM
[19] = second compound 1 µM, first compound 0.0316 µM
[20] = second compound 1 µM, first compound 0.1 µM
[21] = second compound 1 µM, first compound 0.316 µM
[22] = second compound 1 µM, first compound 1 µM
[23] = second compound 1 µM, first compound 3.16 µM
[24] = second compound 1 µM, first compound 10 µM
[25] = second compound 3.16 µM, first compound 0.0316 µM
[26] = second compound 3.16 µM, first compound 0.1 µM
[27] = second compound 3.16 µM, first compound 0.316 µM
[28] = second compound 3.16 µM, first compound 1 µM
[29] = second compound 3.16 µM, first compound 3.16 µM
[30] = second compound 3.16 µM, first compound 10 µM
[31] = second compound 10 µM, first compound 0.0316 µM
[32] = second compound 10 µM, first compound 0.1 µM
[33] = second compound 10 µM, first compound 0.316 µM
[34] = second compound 10 µM, first compound 1 µM
[35] = second compound 10 µM, first compound 3.16 µM
[36] = second compound 10 µM, first compound 10 µM
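Also: spheroids exposed to compounds for 7 days before readout.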

## CCCS(=O)(=O)Nc1ccc(F)c(C(=O)c2c[nH]c3ncc(-c4ccc(Cl)cc4)cc23)c1F + CN1CCN(c2cc(C(=O)Nc3cc4cc(-c5cnn(C)c5)ccc4cn3)ccn2)CC1
Second compound 0.0316 µM
  IC50: 7050 nM
Second compound 0.1 µM
  IC50: 5490 nM
Second compound 0.316 µM
  IC50: < 31.6 nM
Second compound 1 µM
  IC50: < 31.6 nM
Second compound 3.16 µM
  IC50: < 31.6 nM
Second compound 10 µM
  IC50: < 31.6 nM
[1]
  viability, T/C: 79.2%
[2]
  viability, T/C: 101%
[3]
  viability, T/C: 95.7%
[4]
  viability, T/C: 105%
[5]
  viability, T/C: 107%
[6]
  viability, T/C: 29.3%
[7]
  viability, T/C: 73.9%
[8]
  viability, T/C: 80.6%
[9]
  viability, T/C: 100%
[10]
  viability, T/C: 96.7%
[11]
  viability, T/C: 83.7%
[12]
  viability, T/C: 13.2%
[13]
  viability, T/C: 1.36%
[14]
  viability, T/C: 1.57%
[15]
  viability, T/C: 1.57%
[16]
  viability, T/C: 2.69%
[17]
  viability, T/C: 2.52%
[18]
  viability, T/C: 0.54%
[19]
  viability, T/C: 0.13%
[20]
  viability, T/C: 0.17%
[21]
  viability, T/C: 0.16%
[22]
  viability, T/C: 0.11%
[23]
  viability, T/C: 0.17%
[24]
  viability, T/C: 0.07%
[25]
  viability, T/C: 0.14%
[26]
  viability, T/C: 0.16%
[27]
  viability, T/C: 0.2%
[28]
  viability, T/C: 0.19%
[29]
  viability, T/C: 0.74%
[30]
  viability, T/C: 0.26%
[31]
  viability, T/C: 0.34%
[32]
  viability, T/C: 0.17%
[33]
  viability, T/C: 0.54%
[34]
  viability, T/C: 0.22%
[35]
  viability, T/C: 0.8%
[36]
  viability, T/C: 2.02%

## COC1C=CCC(C)C(C)S(=O)(=O)NC(=O)c2ccc3c(c2)N(CC2CCC21)CC1(CCCc2cc(Cl)ccc21)CO3 (centres undefined) + CN1CCN(c2cc(C(=O)Nc3cc4cc(-c5cnn(C)c5)ccc4cn3)ccn2)CC1
Second compound 0.0316 µM
  IC50: 4900 nM
Second compound 0.1 µM
  IC50: 621 nM
Second compound 0.316 µM
  IC50: < 31.6 nM
Second compound 1 µM
  IC50: < 31.6 nM
Second compound 3.16 µM
  IC50: < 31.6 nM
Second compound 10 µM
  IC50: < 31.6 nM
[1]
  viability, T/C: 102%
[2]
  viability, T/C: 97.9%
[3]
  viability, T/C: 92.9%
[4]
  viability, T/C: 92.8%
[5]
  viability, T/C: 75.8%
[6]
  viability, T/C: 8.72%
[7]
  viability, T/C: 64.4%
[8]
  viability, T/C: 74.1%
[9]
  viability, T/C: 52.7%
[10]
  viability, T/C: 43.8%
[11]
  viability, T/C: 27.5%
[12]
  viability, T/C: 2.54%
[13]
  viability, T/C: 1.25%
[14]
  viability, T/C: 2.28%
[15]
  viability, T/C: 2.09%
[16]
  viability, T/C: 1.79%
[17]
  viability, T/C: 1.28%
[18]
  viability, T/C: 0.38%
[19]
  viability, T/C: 0.11%
[20]
  viability, T/C: 0.13%
[21]
  viability, T/C: 2.8%
[22]
  viability, T/C: 0.16%
[23]
  viability, T/C: 0.14%
[24]
  viability, T/C: 0.13%
[25]
  viability, T/C: 0.17%
[26]
  viability, T/C: 0.17%
[27]
  viability, T/C: 0.99%
[28]
  viability, T/C: 0.25%
[29]
  viability, T/C: 0.33%
[30]
  viability, T/C: 0.2%
[31]
  viability, T/C: 0.21%
[32]
  viability, T/C: 0.17%
[33]
  viability, T/C: 0.9%
[34]
  viability, T/C: 0.28%
[35]
  viability, T/C: 0.67%
[36]
  viability, T/C: 0.21%
